Test results taken from publication PMC9699072 (Molecules, 2022).
Counter-ions that a name gives are not always drawn. Like-named read-outs stand apart in the source and are kept apart here.

Key:
Assay type in all cases: biochemical
[1] = ABTS radical cation scavenging (decolorization) assay; conditions: mean ± SEM, n = 3; for IC50: 1 h, read-out: ABTS IC50 (compound concentration required for 50% reduction of the ABTS radical-cation) (converted); for ABTS TEAC (Trolox equivalent antioxidant capacity): 1 h incubation, relative to Trolox
Procedure: The ABTS assay is based on the direct quenching of the ABTS cation radical (ABTS^•+) by antioxidants. The assay is carried out by spectrophotometric determination of a decrease in absorbance of a stable dark green ABTS^•+ solution after its interaction with an antioxidant compound [56]. The measurements were performed as previously described in detail. The results are expressed as TEAC values (Trolox equivalent antioxidant capacity) and IC50 values (compound concentration required for 50% reduction of the ABTS radical).
Radical scavenging activity of the compounds was assessed using the ABTS radical cation (ABTS^•+) decolorization assay with some modifications. ABTS (2,2′-azinobis-(3-ethylbenzothiazoline-6-sulfonic acid)) was purchased from Tokyo Chemical Industry Co., Ltd. (Tokyo, Japan), and potassium persulfate (dipotassium peroxodisulfate), Trolox (6-hydroxy-2,5,7,8-tetramethylchroman-2-carboxylic acid), and HPLC-grade ethanol and DMSO were obtained from Sigma-Aldrich (Saint Louis, MO, USA). Aqueous solutions were prepared using deionized water. All test compounds were dissolved in DMSO.
The solution of cation radical ABTS^•+ was produced by incubation of an aqueous solution of 7 mM ABTS and 2.45 mM potassium persulfate solution in equal quantities for 12–16 h at room temperature in the dark. Radical scavenging capacity of the compounds was analyzed by mixing 10 μL of compound with 240 μL of ABTS^•+ working solution in ethanol (100 μM final concentration). Data were given for 1 h of incubation of compounds with ABTS^•+. The reduction in absorbance was measured spectrophotometrically at 734 nm using an xMark microplate UV/VIS microplate spectrophotometer (Bio-Rad, Hercules, CA, USA).
Ethanol blanks were run in each assay. Values were obtained from three replicates of each sample and three independent experiments.
Standard antioxidant Trolox was used as a reference compound. Antioxidant capacity as Trolox equivalent (TEAC) values was determined as the ratio between the slopes obtained from the linear correlation of the ABTS radical absorbance with the concentrations of tested compounds and Trolox. Quercetin was used as a positive control. For the test compounds that reduced ABTS^•+ absorbance by more than 60% at 100 µM, we also determined the IC50 values (the compound concentration required for a 50% reduction of the ABTS radical). The compounds were tested in the concentration range of 0.5–400 µM.

[2] = FRAP (ferric reducing antioxidant power) assay; conditions: for FRAP TE (Trolox equivalent): mean ± SEM, n = 3, 1 h, 37 °C, pH 3.6
Procedure: The FRAP (ferric reducing antioxidant power) assay measures the ability of antioxidants to reduce the ferric 2,4,6-tripyridyl-s-triazine complex [Fe(TPTZ)2]^3+ to the intensely blue ferrous complex [Fe(TPTZ)2]^2+ in an acidic medium. The measurements were performed as previously described in detail. The results are expressed as TE (Trolox equivalents).
The FRAP (ferric reducing antioxidant power) assay measures the ability of antioxidants to reduce the ferric 2,4,6-tripyridyl-s-triazine complex [Fe (TPTZ)2]^3+ to the intensely blue ferrous complex [Fe (TPTZ)2]^2+ (λ = 593 nm) in acidic medium. 2,4,6-Tris(pyridin-2-yl)-1,3,5-triazine (TPTZ), FeCl3·6H2O, Trolox, quercetin and DMSO were obtained from Sigma-Aldrich Chemical Co. (St. Louis, MO, USA). The FRAP reagent contained 2.5 mL of 10 mM TPTZ solution in 40 mM HCl, 2.5 mL of 20 mM FeCl3·6H2O water solution, and 25 mL of 0.3 M acetate buffer (pH 3.6). Aliquots of 10 µL of the test compound solution in DMSO (0.5 mM) were mixed with 240 µL of FRAP reagent, and the absorbance of the mixture was measured spectrophotometrically (FLUOStar OPTIMA microplate spectrophotometer (BMG Labtech, Ortenberg, Germany)) at 600 nm after 1 h incubation at 37 °C against a blank. Trolox was used as a reference compound. Quercetin was used as a positive control. A calibration curve with linear formula y = 0.03x (R^2 = 0.998, p < 0.0001) was prepared for Trolox solutions in DMSO at a range of 2.5–100 µM, and the results are expressed as Trolox equivalents (TE), the values calculated as the ratio of the concentrations of Trolox and the test compound, resulting in the same effect.

human erythrocyte AChE = biological target: T1, human erythrocyte AChE (Homo sapiens, UniProt P22303); test: Inhibition of AChE (Ellman's colorimetric assay); conditions: read-out: AChE % inhibition at 20 μM
T1 construct: Human erythrocyte acetylcholinesterase (AChE, EC 3.1.1.7); purchased Sigma-Aldrich (Saint Louis, MO, USA); host or cells: human erythrocytes
Source text: Given the available literature data on the ability of pyrazole derivatives to inhibit acetylcholinesterase (AChE) and human carboxylesterase-1 (CES), we performed an investigation of the esterase profile for new compounds 1a–j and 4a–j, including an evaluation of their inhibitory effect on the standard enzymes set: human erythrocyte AChE, equine serum butyrylcholinesterase (BChE), and porcine liver CES (Table 2). The applicability of this set of enzymes was shown by us earlier.
Human erythrocyte acetylcholinesterase (AChE, EC 3.1.1.7), equine serum butyrylcholinesterase (BChE, EC 3.1.1.8), porcine liver carboxylesterase (CES, EC 3.1.1.1), acetylthiocholine iodide (ATCh), butyrylthiocholine iodide (BTCh), 4-nitrophenol acetate (4-NPA), and 5,5′-dithio-bis-(2-nitrobenzoic acid) (DTNB) were purchased from Sigma-Aldrich (Saint Louis, MO, USA).
All the kinetic experiments were performed under standard conditions, according to the protocol of IPAC RAS for a reversible inhibitors study.
Ellman’s colorimetric assay was used to measure AChE and BChE activity in 0.1 M K/Na phosphate buffer at pH 7.5, 25 °C [86]. Final concentrations of reactants were 0.33 mM DTNB, 0.02 unit/mL of AChE or BChE, and 1 mM of substrate (ATCh or BTCh, respectively). Reagent blanks consisted of reaction mixtures without enzyme to assess non-enzymatic hydrolysis of substrates. Porcine liver CES activity was assessed colorimetrically in 0.1 M K/Na phosphate buffer with pH 8.0 at 25 °C, by measuring the absorbance of 4-nitrophenol at 405 nm. Final enzyme and substrate (4-NPA) concentrations were 0.02 unit/mL and 1 mM, respectively. Reagent blanks included all constituents except enzyme.
Test compounds were dissolved in DMSO. Reaction mixtures contained a final DMSO concentration of 2% (v/v). Enzyme inhibition was first assessed at a single concentration of 20 µM for each compound after a 10 min incubation at 25 °C in three separate experiments. Compounds inhibiting the enzyme by more than 30% were then selected for determination of the IC50 (inhibitor concentration resulting in 50% inhibition of control enzyme activity). […] Substrate was then added, and residual enzyme activity relative to an inhibitor-free control was measured using a FLUOStar Optima microplate reader (LabTech, Ortenberg, Germany).

[3] = 20 μM, ± SEM, n = 3, 10 min incubation 25 °C

T1 sequence (P22303 32-617 isoform P22303-2 limits assumed): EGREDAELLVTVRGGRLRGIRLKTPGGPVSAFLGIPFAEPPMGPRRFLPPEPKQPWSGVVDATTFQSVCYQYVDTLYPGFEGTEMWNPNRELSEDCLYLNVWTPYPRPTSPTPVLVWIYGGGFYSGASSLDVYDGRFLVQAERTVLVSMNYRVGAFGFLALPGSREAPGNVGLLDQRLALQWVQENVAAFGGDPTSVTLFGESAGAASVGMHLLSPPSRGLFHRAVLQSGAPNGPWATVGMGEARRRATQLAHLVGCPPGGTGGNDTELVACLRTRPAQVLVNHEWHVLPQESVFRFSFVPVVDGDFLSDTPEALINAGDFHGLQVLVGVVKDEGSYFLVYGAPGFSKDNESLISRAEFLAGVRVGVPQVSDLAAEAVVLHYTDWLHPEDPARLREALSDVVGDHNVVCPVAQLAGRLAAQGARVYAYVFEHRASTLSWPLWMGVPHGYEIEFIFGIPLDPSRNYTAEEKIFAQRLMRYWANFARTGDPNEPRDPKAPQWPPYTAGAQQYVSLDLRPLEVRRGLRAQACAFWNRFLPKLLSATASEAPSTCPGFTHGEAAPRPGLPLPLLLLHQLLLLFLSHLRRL

## Cl.Nc1c(C(F)(F)C(F)(F)C(F)(F)C(F)(F)F)n[nH]c1O.O [4i, 4-Amino-3-(nonafluorobutyl)-1H-pyrazol-5-ol hydrate hydrochloride]
[1]
  IC50: 40.8 µM
  ABTS TEAC (Trolox equivalent antioxidant capacity): 0.45 ± 0.02 TEAC
[2]
  FRAP TE (Trolox equivalent): 0.75 ± 0.05 TE
Human erythrocyte AChE
  inhibition at 20 µM: 5.1 ± 0.9%

## Cc1n[nH]c(O)c1N.Cl [4j, 4-Amino-3-methyl-1H-pyrazol-5-ol hydrochloride]
[1]
  IC50: 20.1 µM
  ABTS TEAC (Trolox equivalent antioxidant capacity): 0.95 ± 0.04 TEAC
[2]
  FRAP TE (Trolox equivalent): 1.04 ± 0.04 TE

## O=C1NN=C(C(F)(F)C(F)(F)F)/C1=N/O [1g]
[1]
  ABTS TEAC (Trolox equivalent antioxidant capacity): 0.13 ± 0.04 (n.d.) TEAC
[2]
  FRAP TE (Trolox equivalent): 0.13 ± 0.01 TE

## CC1=NNC(=O)/C1=N\O [1j]
[1]
  ABTS TEAC (Trolox equivalent antioxidant capacity): 0.2 ± 0.03 (n.d.) TEAC
[2]
  FRAP TE (Trolox equivalent): 0.09 ± 0.01 TE

## Cl.Nc1c(C(F)(F)C(F)(F)F)n[nH]c1O.O [4g, 4-Amino-3-(pentafluoroethyl)-1H-pyrazol-5-ol hydrate hydrochloride]
[1]
  IC50: 25.7 µM
  ABTS TEAC (Trolox equivalent antioxidant capacity): 0.73 ± 0.03 TEAC
[2]
  FRAP TE (Trolox equivalent): 0.88 ± 0.04 TE
Human erythrocyte AChE
  inhibition at 20 µM: 17.3 ± 1.7%

## Nc1c(C(F)(F)C(F)(F)C(F)(F)C(F)(F)F)nn(-c2ccccc2)c1O [4c, 5-Hydroxy-1-phenyl-3-(nonafluorobuthyl)-1H-pyrazol-4-ammonium hydrochloride]
[1]
  IC50: 23.4 µM
  ABTS TEAC (Trolox equivalent antioxidant capacity): 0.85 ± 0.04 TEAC
[2]
  FRAP TE (Trolox equivalent): 0.98 ±0.05 TE
Human erythrocyte AChE
  inhibition at 20 µM: 19.2 ± 1.7%

## Cl.Nc1c(C(F)(F)C(F)(F)F)nn(-c2ccccc2)c1O.O [4b, 4-Amino-3-(pentafluoroethyl)-1-phenyl-1H-pyrazol-5-ol hydrate hydrochloride]
[1]
  IC50: 34.1 µM
  ABTS TEAC (Trolox equivalent antioxidant capacity): 0.6 ± 0.03 TEAC
[2]
  FRAP TE (Trolox equivalent): 0.75 ± 0.07 TE
Human erythrocyte AChE
  inhibition at 20 µM: 4.4 ± 1.1%

## Cl.Nc1c(C(F)(F)C(F)(F)C(F)(F)F)n[nH]c1O.O [4h, 4-Amino-3-(heptafluoropropyl)-1H-pyrazol-5-ol hydrate hydrochloride]
[1]
  IC50: 24.8 µM
  ABTS TEAC (Trolox equivalent antioxidant capacity): 0.78 ± 0.04 TEAC
[2]
  FRAP TE (Trolox equivalent): 1.03 ± 0.04 TE

## O=C1NN=C(C(F)(F)F)/C1=N/O [1e]
[1]
  ABTS TEAC (Trolox equivalent antioxidant capacity): 0.23 ± 0.01 (n.d.) TEAC
[2]
  FRAP TE (Trolox equivalent): 0.07 ± 0.01 TE

## Oc1cc(C(F)(F)F)nn1-c1ccccc1 [CF3-EDA, 3-trifluoromethyl-1-phenylpyrazol-5-ol, reference compound]
[1]
  IC50: 21.4 µM
  ABTS TEAC (Trolox equivalent antioxidant capacity): 0.95 ± 0.04 TEAC
[2]; FRAP test, relative to EDA
  Ferric reducing activity lower than that of EDA: 20%
[2]
  FRAP TE (Trolox equivalent): 0.63 ± 0.03 TE

## Cc1nn(-c2ccccc2)c(O)c1N.Cl.O [4d, 4-Amino-3-methyl-1-phenyl-1H-pyrazol-5-ol hydrochloride hydrate]
[1]
  IC50: 23.3 µM
  ABTS TEAC (Trolox equivalent antioxidant capacity): 0.93 ± 0.03 TEAC
[1]; listed as APH
  ABTS TEAC (Trolox equivalent antioxidant capacity): 0.93 TEAC
[2]
  FRAP TE (Trolox equivalent): 0.98 ± 0.08 TE
[2]; listed as APH
  FRAP TE (Trolox equivalent): 0.98 TE
Human erythrocyte AChE
  inhibition at 20 µM: 6.5 ± 1.2%

## Cl.Nc1c(C(F)(F)F)nn(-c2ccccc2)c1O [4a, 4-Amino-3-(trifluoromethyl)-1-phenyl-1H-pyrazol-5-ol hydrochloride]
[1]
  IC50: 27.2 µM
  ABTS TEAC (Trolox equivalent antioxidant capacity): 0.75 ± 0.04 TEAC
[2]
  FRAP TE (Trolox equivalent): 0.89 ± 0.05 TE
Human erythrocyte AChE; [3]
  inhibition at 20 µM: 7.9 ± 1.5%

## 3-methyl-1-phenyl-2-pyrazolin-5-one [EDA, reference compound]
[1]
  IC50: 21.4 µM
  ABTS TEAC (Trolox equivalent antioxidant capacity): 0.96 ± 0.04 TEAC
[2]
  FRAP TE (Trolox equivalent): 0.80 ± 0.01 TE

## Cl.Nc1c(C(F)(F)F)n[nH]c1O [4e, 4-Amino-3-(trifluoromethyl)-1H-pyrazol-5-ol hydrochloride]
[1]
  IC50: 21.2 µM
  ABTS TEAC (Trolox equivalent antioxidant capacity): 0.92 ± 0.04 TEAC
[2]
  FRAP TE (Trolox equivalent): 1.02 ± 0.02 TE
Human erythrocyte AChE; [3]
  inhibition at 20 µM: 9.7 ± 1.5%
